Results taken from PubChem BioAssay (NCI).
Values joined by “and” are separate entries in the source; they are usually repeats but may differ in a detail not shown here. Equal entries are not always repeated.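 Method: 48-hour compound exposure of cells in 96-well plates, five concentrations, linear interpolation of endpoints. Here, GI50 denotes the concentration required for 50% inhibition of growth. TGI: total growth inhibition.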

Experiments:
Test in all cases: inhibition of tumour cell growth, NCI panel, 48 h
ACHN renal = tested on: ACHN renal
HCT-116 colon = tested on: HCT-116 colon
KM12 colon = tested on: KM12 colon
M14 melanoma = tested on: M14 melanoma
NCI-H23 lung = tested on: NCI-H23 lung
OVCAR-3 ovarian = tested on: OVCAR-3 ovarian
OVCAR-8 ovarian = tested on: OVCAR-8 ovarian
RPMI-8226 leukemia = tested on: RPMI-8226 leukemia
SK-MEL-28 melanoma = tested on: SK-MEL-28 melanoma
SNB-19 CNS = tested on: SNB-19 CNS

Compound | GI50 (ACHN renal) [µM] | TGI (ACHN renal) [µM] | GI50 (HCT-116 colon) [µM] | TGI (HCT-116 colon) [µM] | GI50 (KM12 colon) [µM] | TGI (KM12 colon) | GI50 (M14 melanoma) [µM] | TGI (M14 melanoma) [µM] | GI50 (NCI-H23 lung) [µM] | TGI (NCI-H23 lung) | GI50 (OVCAR-3 ovarian) [µM] | TGI (OVCAR-3 ovarian) | GI50 (OVCAR-8 ovarian) [µM] | TGI (OVCAR-8 ovarian) | GI50 (RPMI-8226 leukemia) [µM] | TGI (RPMI-8226 leukemia) [µM] | GI50 (SK-MEL-28 melanoma) [µM] | TGI (SK-MEL-28 melanoma) | GI50 (SNB-19 CNS) [µM] | TGI (SNB-19 CNS)
COC(=O)C1=C(O)[C@H](C(=O)OC)C2(O)C(C(=O)OC)[C@H](c3ccc(OC(=O)C(C)c4ccccc4)cc3)C[C@@H]1[C@@H]2C(=O)OC (some centres undefined) | 19.2 | > 50 | 17.3 | > 50 | 10.6 | 31.4 µM | 34.9 | > 50 | 12.5 | 29.2 µM | 9.69 | 21.4 µM | 15 | > 50 µM | 18.8 | > 50 | 26.7 | > 50 µM | 23.7 | > 50 µM
CC(=O)OC1CCC2(C)C(CCC3C2CC(=O)C2(C)C3CC(N3CC3)C2C(C)=O)C1 (centres undefined) | – | 29.6 | – | > 100 | – | 43.4 µM | – | 51.7 | – | 44.9 µM | – | 97.3 µM | – | 46.7 µM | – | 83.6 | – | > 100 µM | – | 63.4 µM
CSCS(=O)C[C@H](CO)NC(=O)/C=C/c1c(C)[nH]c(=O)[nH]c1=O (some centres undefined) | – | 6.86 | 3.16 | – | 1.95 | 7.6 µM and 3.98 µM | – | 2.79 | 1.84 | 4.95 µM and 2.47 µM | 1.89 | 4.63 µM and 3.98 µM | 1.02 | 3.96 µM and 4.35 µM | – | 6.71 | 1.89 | 7.94 µM and 3.51 µM | 0.605 | 8.35 µM and 5.11 µM
N/N=C1\C(=O)N(Cc2ccccc2)C(=O)C1C(=O)NCc1ccccc1 (centres undefined) | – | > 100 | – | > 100 | – | > 100 µM | – | > 100 | – | > 100 µM | – | > 100 µM | – | > 100 µM | – | > 100 | – | > 100 µM | – | > 100 µM
CC/C=C\C[C@H](F)C/C=C1/C(=O)C=C[C@@H]1C/C=C\CCCC(=O)OC | 2.46 | 9.07 | 0.88 | 1.79 | 1.26 | 3.43 µM | 1.65 | 5.8 | 2.16 | 10.9 µM | 2.05 | 6.9 µM | 2.05 | 12.2 µM | 1.39 | 5.49 | 1.52 | 4.94 µM | 2.35 | 9.23 µM
COc1cc2c(c(OC)c1OC)-c1ccc(O)cc1[C@@H](NC(C)=O)CC2 | 0.166 | > 100 | 0.0395 | > 100 | 0.0358 | 0.224 µM | 0.033 | – | 0.0544 | > 100 µM | 0.0232 | 0.0513 µM | 0.0562 | > 100 µM | 0.0312 | – | 0.0528 | > 100 µM | 0.0554 | > 100 µM
CC(=O)/C(=C/c1ccccc1)C(=O)CC(C)C | 11.2 | 26.3 | 2.05 | 3.97 | 2.25 | 5.01 µM | 10.8 | 24.3 | 18.4 | 43.1 µM | 4.69 | 15.9 µM | 17.6 | 53 µM | 4.31 | 98.2 | 11.5 | 24.9 µM | 12.7 | 26.2 µM
CSC(=NC#N)S/C=C/C(=O)c1ccccc1 | 28.6 | 76.9 | 17.9 | 34.1 | > 100 | > 100 µM | 24.7 | 65.8 | 23.8 | 58.8 µM | 31.5 | > 100 µM | 38.1 | > 100 µM | 12.3 | 34.7 | 58 | > 100 µM | > 100 | > 100 µM
COC1C(O)CC(OC2CC(OC3CC(O[C@@H]4C(=O)c5c(cc6cc(OC7CC(OC8CC(O)C(O)C(C)O8)C(O)C(C)O7)c(C)c(O)c6c5O)CC4[C@H](OC)C(=O)O)OC(C)C3O)OC(C)C2O)OC1C (some centres undefined) | 1.09 | > 33.3 | 1.25 | > 33.3 | 1.89 | > 33.3 µM | 3.14 | > 33.3 | 1.63 | 17.2 µM | 2.06 | > 33.3 µM | 2.27 | > 33.3 µM | 1.73 | > 33.3 | 1.48 | 11.7 µM | 1.68 | > 33.3 µM
Cc1c2ccn(O)cc2c(C)c2c1nc1ccccc12 | – | > 85.7 | – | 24.7 | – | > 100 µM | – | > 100 | – | 30.2 µM | – | > 81.7 µM | – | 64.4 µM | – | > 100 | – | > 100 µM | – | 30.8 µM
CCCCC(CCCCCC(CCCC)NCc1ccc2c(c1)OCO2)NCc1ccc2c(c1)OCO2 (centres undefined) | 1.17 | 2.4 | 0.194 | 0.369 | 0.232 | 0.51 µM | 0.182 | 0.324 | 1.32 | 2.71 µM | 0.936 | 2.25 µM | 0.393 | 0.967 µM | 0.276 | 0.805 | 0.188 | 0.337 µM | 1.3 | 2.59 µM
N.N.N.N.N.NC(=O)[O-].[Co+3].[I-] | > 100 | > 100 | > 100 | > 100 | > 100 | > 100 µM | > 100 | > 100 | > 100 | > 100 µM | > 100 | > 100 µM | > 100 | > 100 µM | > 100 | > 100 | > 100 | > 100 µM | > 100 | > 100 µM
Cc1ccc2oc(=O)cc(/C(=C3/C=CC=N3)c3ccc[nH]3)c2c1 | 0.694 | 8.56 | 0.375 | 1.79 | 0.344 | 1.71 µM | 0.209 | 0.548 | 0.484 | 3.66 µM | 0.271 | 0.707 µM | 0.304 | 1.07 µM | 0.297 | 1.16 | 0.611 | 3.46 µM | 0.355 | 4.94 µM
O=c1c2ccc(S(=O)(=O)c3ccc4c(=O)n5c6ccccc6nc5c5cccc3c45)c3cccc(c32)c2nc3ccccc3n12 | – | 30.2 | – | > 100 | – | > 100 µM | – | > 100 | – | > 100 µM | – | > 100 µM | – | > 100 µM | – | > 100 | – | > 100 µM | – | 37.9 µM
